Results taken from PubChem BioAssay AID1259407 (Chemical Carcinogenesis Research Information System (CCRIS), 2018).
The source made the active and inactive calls. No rule for the calls is given here.

Tested on: CCRIS mutagenicity, Ames/micronucleus/aberration tests
Experiment: CCRIS mutagenicity studies
[1] = Test System: AMES SALMONELLA TYPHIMURIUM, Strain/Indicator: TA98, Metabolic Activation: NONE, Method: STANDARD PLATE
[2] = Test System: AMES SALMONELLA TYPHIMURIUM, Strain/Indicator: TA98, Metabolic Activation: RAT, LIVER, S-9, AROCLOR 1254, Method: STANDARD PLATE
[3] = Test System: AMES SALMONELLA TYPHIMURIUM, Strain/Indicator: TA100, Metabolic Activation: NONE, Method: STANDARD PLATE
[4] = Test System: AMES SALMONELLA TYPHIMURIUM, Strain/Indicator: TA100, Metabolic Activation: RAT, LIVER, S-9, AROCLOR 1254, Method: STANDARD PLATE
[5] = Test System: AMES SALMONELLA TYPHIMURIUM, Strain/Indicator: TA1535, Metabolic Activation: NONE, Method: STANDARD PLATE
[6] = Test System: AMES SALMONELLA TYPHIMURIUM, Strain/Indicator: TA1535, Metabolic Activation: RAT, LIVER, S-9, AROCLOR 1254, Method: STANDARD PLATE
[7] = Test System: AMES SALMONELLA TYPHIMURIUM, Strain/Indicator: TA1537, Metabolic Activation: NONE, Method: STANDARD PLATE
[8] = Test System: AMES SALMONELLA TYPHIMURIUM, Strain/Indicator: TA1537, Metabolic Activation: RAT, LIVER, S-9, AROCLOR 1254, Method: STANDARD PLATE
[9] = Test System: AMES SALMONELLA TYPHIMURIUM, Strain/Indicator: TA1538, Metabolic Activation: NONE, Method: STANDARD PLATE
[10] = Test System: AMES SALMONELLA TYPHIMURIUM, Strain/Indicator: TA1538, Metabolic Activation: RAT, LIVER, S-9, AROCLOR 1254, Method: STANDARD PLATE

CC(=O)CC(=O)CCC(=O)O
mutagenic call (Test System: AMES SALMONELLA TYPHIMURIUM, Strain/Indicator: TA98, Metabolic Activation: HAMSTER, LIVER, S-9, AROCLOR 1254, Method: STANDARD PLATE): inactive; negative
mutagenic call [1]: inactive; negative
mutagenic call [2]: inactive; negative
mutagenic call (Test System: AMES SALMONELLA TYPHIMURIUM, Strain/Indicator: TA100, Metabolic Activation: HAMSTER, LIVER, S-9, AROCLOR 1254, Method: STANDARD PLATE): inactive; negative
mutagenic call [3]: inactive; negative
mutagenic call [4]: inactive; negative
mutagenic call (Test System: AMES SALMONELLA TYPHIMURIUM, Strain/Indicator: TA1535, Metabolic Activation: HAMSTER, LIVER, S-9, AROCLOR 1254, Method: STANDARD PLATE): inactive; negative
mutagenic call [5]: inactive; negative
mutagenic call [6]: inactive; negative
mutagenic call (Test System: AMES SALMONELLA TYPHIMURIUM, Strain/Indicator: TA1537, Metabolic Activation: HAMSTER, LIVER, S-9, AROCLOR 1254, Method: STANDARD PLATE): inactive; negative
mutagenic call [7]: inactive; negative
mutagenic call [8]: inactive; negative
mutagenic call (Test System: AMES SALMONELLA TYPHIMURIUM, Strain/Indicator: TA1538, Metabolic Activation: HAMSTER, LIVER, S-9, AROCLOR 1254, Method: STANDARD PLATE): inactive; negative
mutagenic call [9]: inactive; negative
mutagenic call [10]: inactive; negative
mutagenic call (Test System: CHINESE HAMSTER V-79, Strain/Indicator: V-79 (HGPRT)/6-THIOGUANINE, Metabolic Activation: NONE): inactive; negative
mutagenic call (Test System: MOUSE LYMPHOMA, Strain/Indicator: L5178Y (TK+/TK-), Metabolic Activation: NONE, Method: SUSPENSION/PLATE): inactive; negative. reevaluation of results: negative
mutagenic call (Test System: MOUSE LYMPHOMA, Strain/Indicator: L5178Y (TK+/TK-), Metabolic Activation: RAT, LIVER, S-9, AROCLOR 1254, Method: SUSPENSION/PLATE): active; positive. reevaluation of results: positive

O=Nc1ccc(Oc2ccccc2)cc1
mutagenic call [1]: active; positive
mutagenic call (Test System: AMES SALMONELLA TYPHIMURIUM, Strain/Indicator: TA100, Metabolic Activation: GUINEA PIG, LIVER, S-9, KANECLOR 500, Method: STANDARD PLATE): active; positive

CC(C)(O)[C@H]1CC[C@@](C)([C@H]2[C@@H](O)C[C@@]3(C)[C@@H]4CC[C@H]5C(C)(C)C(=O)CC[C@@]56C[C@@]46CC[C@]23C)O1
mutagenic call (End Point: IN VITRO MICRONUCLEUS, Test System: HUMAN PERIPHERAL LYMPHOCYTES, Metabolic Activation: NONE): inactive; negative

O=C(Nc1ccccc1)C1CO1 (centres undefined)
mutagenic call (Test System: AMES SALMONELLA TYPHIMURIUM, Strain/Indicator: TA100, Metabolic Activation: MOUSE, LIVER, S-9, AROCLOR 1254, Method: STANDARD PLATE): active; positive
mutagenic call [3]: active; positive

NCCCC[C@H](N[C@@H](CCc1ccccc1)C(=O)O)C(=O)N1CCC[C@H]1C(=O)O
mutagenic call [1]: inactive; negative
mutagenic call [2]: inactive; negative
mutagenic call [3]: inactive; negative
mutagenic call [4]: inactive; negative
mutagenic call [5]: inactive; negative
mutagenic call [6]: inactive; negative
mutagenic call [7]: inactive; negative
mutagenic call [8]: inactive; negative
mutagenic call [9]: inactive; negative
mutagenic call [10]: inactive; negative
mutagenic call (Test System: E. COLI, Strain/Indicator: WP2, Metabolic Activation: NONE, Method: STANDARD PLATE): inactive; negative
mutagenic call (Test System: E. COLI, Strain/Indicator: WP2, Metabolic Activation: RAT, LIVER, S-9, AROCLOR 1254, Method: STANDARD PLATE): inactive; negative
mutagenic call (Test System: E. COLI, Strain/Indicator: WP2 UVRA, Metabolic Activation: NONE, Method: STANDARD PLATE): inactive; negative
mutagenic call (Test System: E. COLI, Strain/Indicator: WP2 UVRA, Metabolic Activation: RAT, LIVER, S-9, AROCLOR 1254, Method: STANDARD PLATE): inactive; negative

COc1cc(O)c2c(c1)C1=C[C@H](O)[C@@H](O)C[C@]1(C)OC2=O
mutagenic call (End Point: Ames Salmonella typhimurium, Strain/Indicator: TA97, Metabolic Activation: None, Method: Standard plate): inactive; negative. nitrosation did not increase mutagenicity
mutagenic call (End Point: Ames Salmonella typhimurium, Strain/Indicator: TA97, Metabolic Activation: Rat, Liver, S-9, Aroclor 1254 (10%), Method: Standard plate): inactive; negative. nitrosation did not increase mutagenicity
mutagenic call (End Point: Ames Salmonella typhimurium, Strain/Indicator: TA102, Metabolic Activation: None, Method: Standard plate): inactive; negative. nitrosation did not increase mutagenicity
mutagenic call (End Point: Ames Salmonella typhimurium, Strain/Indicator: TA102, Metabolic Activation: Rat, Liver, S-9, Aroclor 1254 (10%), Method: Standard plate): inactive; negative. nitrosation did not increase mutagenicity
mutagenic call (End Point: Ames Salmonella typhimurium, Strain/Indicator: TA104, Metabolic Activation: None, Method: Standard plate): inactive; negative. nitrosation did not increase mutagenicity
mutagenic call (End Point: Ames Salmonella typhimurium, Strain/Indicator: TA104, Metabolic Activation: Rat, Liver, S-9, Aroclor 1254 (10%), Method: Standard plate): inactive; negative. nitrosation did not increase mutagenicity
mutagenic call [1]: inactive; negative
mutagenic call (Test System: AMES SALMONELLA TYPHIMURIUM, Strain/Indicator: TA98, Metabolic Activation: RAT LIVER S-9, AROCLOR 1254, Method: STANDARD PLATE): inactive; negative
mutagenic call [3]: inactive; negative
mutagenic call (Test System: AMES SALMONELLA TYPHIMURIUM, Strain/Indicator: TA100, Metabolic Activation: RAT LIVER S-9, AROCLOR 1254, Method: STANDARD PLATE): inactive; negative

O=C(c1ccc(-c2ccccc2)cc1)C1OC1c1ccccc1 (centres undefined)
mutagenic call [1]: inactive; negative
mutagenic call [2]: inactive; negative
mutagenic call [3]: inactive; negative
mutagenic call [4]: inactive; negative

Cc1ccccc1N=Nc1c(O)ccc2ccccc12
mutagenic call (Test System: AMES SALMONELLA TYPHIMURIUM, Strain/Indicator: TA98, Metabolic Activation: HAMSTER, LIVER, S-9, AROCLOR 1254 (30%), Method: PREINCUBATION): inactive; negative
mutagenic call (Test System: AMES SALMONELLA TYPHIMURIUM, Strain/Indicator: TA98, Metabolic Activation: NONE, Method: PREINCUBATION): inactive; negative
mutagenic call (Test System: AMES SALMONELLA TYPHIMURIUM, Strain/Indicator: TA98, Metabolic Activation: RAT, LIVER, S-9, AROCLOR 1254 (30%), Method: PREINCUBATION): inactive; negative
mutagenic call (Test System: AMES SALMONELLA TYPHIMURIUM, Strain/Indicator: TA100, Metabolic Activation: HAMSTER, LIVER, S-9, AROCLOR 1254 (30%), Method: PREINCUBATION): active; positive
mutagenic call (Test System: AMES SALMONELLA TYPHIMURIUM, Strain/Indicator: TA100, Metabolic Activation: NONE, Method: PREINCUBATION): inactive; negative
mutagenic call (Test System: AMES SALMONELLA TYPHIMURIUM, Strain/Indicator: TA100, Metabolic Activation: RAT, LIVER, S-9, AROCLOR 1254 (30%), Method: PREINCUBATION): inactive; negative

c1ccc(-c2nc3ccccc3o2)cc1
mutagenic call [1]: inactive; negative
mutagenic call (Test System: AMES SALMONELLA TYPHIMURIUM, Strain/Indicator: TA98, Metabolic Activation: S-9, Method: STANDARD PLATE): inactive; negative
